Earlier results on two compounds are cited in patent US7642353B2, “Process of making crystalline aripiprazole” (Synthon BV, priority 2004, dated 2010).

With `O=C1CCc2ccc(OCCCCN3CCN(c4cccc(Cl)c4Cl)CC3)cc2N1` [Anhydrous Form B, 7-[4-[4-(2,3-dichlorophenyl)-1-piperazinyl]butoxy]-3,4-dihydrocarbostyril], the water uptake result (in 24 hours) is “less than 0.4%”.
Regarding `O=C1CCc2ccc(OCCCCN3CCN(c4cccc(Cl)c4Cl)CC3)cc2N1` [Type I aripiprazole, 7-[4-[4-(2,3-dichlorophenyl)-1-piperazinyl]butoxy]-3,4-dihydrocarbostyril], for the setting “solid form, as taught by WO 03/26659”, the hygroscopicity entry was “significantly hygroscopic”.
